We go through 14 molecules from ChEMBL document CHEMBL1149347, “Fatty acid synthase inhibitory activity of acylphloroglucinols isolated from Dryopteris crassirhizoma” (Bioorg Med Chem Lett, 2006).

The target of assay [1] is T1, Fatty acid synthase (Homo sapiens, UniProt P49327). Briefly: Inhibition of FAS.
Target sequence in this assay (P49327 whole entry): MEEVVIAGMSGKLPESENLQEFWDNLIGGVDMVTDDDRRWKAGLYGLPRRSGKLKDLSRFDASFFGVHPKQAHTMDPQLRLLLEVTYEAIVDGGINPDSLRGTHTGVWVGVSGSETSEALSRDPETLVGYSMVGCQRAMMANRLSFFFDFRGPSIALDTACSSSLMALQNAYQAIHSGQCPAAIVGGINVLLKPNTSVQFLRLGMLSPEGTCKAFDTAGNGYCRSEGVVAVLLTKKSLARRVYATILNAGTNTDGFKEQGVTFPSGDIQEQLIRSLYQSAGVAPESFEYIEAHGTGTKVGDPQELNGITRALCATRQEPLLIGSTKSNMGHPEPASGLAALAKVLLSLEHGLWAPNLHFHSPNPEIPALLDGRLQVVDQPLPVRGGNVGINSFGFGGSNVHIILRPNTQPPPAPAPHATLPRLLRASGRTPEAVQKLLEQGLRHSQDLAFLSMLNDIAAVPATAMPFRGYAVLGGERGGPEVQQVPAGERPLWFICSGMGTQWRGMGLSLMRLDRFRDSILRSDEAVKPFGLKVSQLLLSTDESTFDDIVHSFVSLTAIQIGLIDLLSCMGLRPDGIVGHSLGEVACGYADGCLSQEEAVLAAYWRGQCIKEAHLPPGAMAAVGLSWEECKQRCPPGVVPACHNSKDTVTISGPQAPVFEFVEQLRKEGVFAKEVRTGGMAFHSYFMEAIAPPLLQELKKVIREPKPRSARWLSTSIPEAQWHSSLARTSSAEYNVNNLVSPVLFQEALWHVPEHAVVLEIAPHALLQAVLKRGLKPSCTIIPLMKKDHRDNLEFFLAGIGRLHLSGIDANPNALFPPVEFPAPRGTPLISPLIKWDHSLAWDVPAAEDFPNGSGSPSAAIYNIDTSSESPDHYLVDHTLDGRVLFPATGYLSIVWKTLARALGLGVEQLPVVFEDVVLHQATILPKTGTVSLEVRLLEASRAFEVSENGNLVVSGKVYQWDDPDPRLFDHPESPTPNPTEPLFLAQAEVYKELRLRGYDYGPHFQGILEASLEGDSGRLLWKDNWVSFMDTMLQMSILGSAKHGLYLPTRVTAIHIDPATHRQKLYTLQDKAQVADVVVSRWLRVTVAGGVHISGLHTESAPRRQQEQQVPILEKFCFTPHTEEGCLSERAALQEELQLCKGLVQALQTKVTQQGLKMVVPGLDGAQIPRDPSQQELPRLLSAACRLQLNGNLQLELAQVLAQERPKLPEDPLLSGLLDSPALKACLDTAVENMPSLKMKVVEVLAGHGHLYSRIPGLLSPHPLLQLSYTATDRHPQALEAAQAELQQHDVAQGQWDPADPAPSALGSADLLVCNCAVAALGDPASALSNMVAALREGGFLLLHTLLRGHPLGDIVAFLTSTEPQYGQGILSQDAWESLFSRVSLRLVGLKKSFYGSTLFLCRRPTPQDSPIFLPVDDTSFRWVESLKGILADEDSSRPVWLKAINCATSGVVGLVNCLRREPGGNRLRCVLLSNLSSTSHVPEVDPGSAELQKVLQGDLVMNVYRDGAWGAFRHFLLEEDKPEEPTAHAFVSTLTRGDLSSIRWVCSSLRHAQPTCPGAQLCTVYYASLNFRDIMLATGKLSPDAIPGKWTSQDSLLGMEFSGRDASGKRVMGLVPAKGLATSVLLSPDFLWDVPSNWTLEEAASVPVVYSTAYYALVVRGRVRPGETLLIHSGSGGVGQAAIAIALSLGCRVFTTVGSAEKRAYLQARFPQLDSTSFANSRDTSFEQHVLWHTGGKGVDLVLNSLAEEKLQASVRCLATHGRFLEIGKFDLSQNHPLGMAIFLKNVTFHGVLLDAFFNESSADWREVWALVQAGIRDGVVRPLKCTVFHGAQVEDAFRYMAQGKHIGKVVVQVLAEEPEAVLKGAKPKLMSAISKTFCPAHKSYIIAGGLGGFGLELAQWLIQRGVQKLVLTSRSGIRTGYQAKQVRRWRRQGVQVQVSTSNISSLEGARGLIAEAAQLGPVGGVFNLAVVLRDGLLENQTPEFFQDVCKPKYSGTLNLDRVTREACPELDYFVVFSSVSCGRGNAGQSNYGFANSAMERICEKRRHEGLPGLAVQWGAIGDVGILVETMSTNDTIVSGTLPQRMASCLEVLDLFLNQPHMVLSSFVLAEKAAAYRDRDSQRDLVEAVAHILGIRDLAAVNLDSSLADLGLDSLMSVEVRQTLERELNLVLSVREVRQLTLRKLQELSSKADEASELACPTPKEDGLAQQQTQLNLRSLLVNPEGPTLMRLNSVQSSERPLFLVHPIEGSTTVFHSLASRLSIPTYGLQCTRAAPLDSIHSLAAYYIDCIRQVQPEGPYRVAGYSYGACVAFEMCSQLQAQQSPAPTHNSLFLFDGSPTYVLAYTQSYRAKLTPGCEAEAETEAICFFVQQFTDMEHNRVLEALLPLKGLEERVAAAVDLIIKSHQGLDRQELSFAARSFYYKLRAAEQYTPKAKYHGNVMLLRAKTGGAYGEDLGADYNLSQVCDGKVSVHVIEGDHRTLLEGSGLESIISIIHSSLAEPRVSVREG
Assay [2] addresses T1, Fatty acid synthase. Briefly: Inhibition of FAS at 100 uM.
Target sequence in this assay (P49327 whole entry, looked up): as the sequence (P49327 whole entry) above

Turning to `CCC(=O)C1=C(O)C(C)(C)C(O)=C(CC2=C(O)C(C)(C)C(O)=C(C(=O)CC)C2=O)C1=O`, at Fatty acid synthase [1], the IC50 turned out to be 60.2 µM. On the same count and under the same terms, to `CCCC(=O)c1c(O)cc(OC)c(C)c1O` belongs 49.1 µM; to `CCCC(=O)C1=C(O)C(C)C(O)=C(CC2=C(O)C(C)(C)C(O)=C(C(C)=O)C2=O)C1=O` (stereo unspecified), 28.7 µM; to `CCC(=O)C1=C(O)C(C)(C)C(O)=C(CC2=C(O)C(C)(C)C(O)=C(C(C)=O)C2=O)C1=O`, 71.7 µM. The same measure, in the same setting: in the case of `CCCC(=O)C1=C(O)CC(O)=C(CC2=C(O)C(C)(C)C(O)=C(C(C)=O)C2=O)C1=O` it was 29.7 µM. Still for that read-out and setting: to `O=c1cc(-c2ccc(O)c(O)c2)oc2cc(O)cc(O)c12` [LUTEOLIN] belongs 62.5 µM.

With `O=c1c(O)c(-c2ccccc2)oc2ccccc12` [FLAVONOL], the IC50 on Fatty acid synthase [1] is more than 100 µM. The molecule also displayed an inhibition against Fatty acid synthase [2] of 6.5%. In turn, `CCCC(=O)C1=C(O)C(C)C(O)=C(CC2=C(O)C(C)(C)C(O)=C(C(=O)CC)C2=O)C1=O` (stereo unspecified) returned an IC50 on Fatty acid synthase [1] of 23.1 µM. Still for that read-out and setting: to `CCCC(=O)C1=C(O)C(C)(C)C(O)=C(CC2=C(O)C(C)(C)C(O)=C(C(=O)CC)C2=O)C1=O` belongs 56.1 µM. The same measure, in the same setting: in the case of `C/C=C/C/C=C/CCC(=O)[C@H]1O[C@H]1C(N)=O` [CERULENIN] it was 13 µM; in that of `CCCC(=O)c1c(O)c(C)c(O)c(Cc2c(O)c(C)c(O)c(C(=O)CCC)c2O)c1O`, 25.4 µM. For `Oc1cc(O)c2c(c1)O[C@H](c1ccc(O)c(O)c1)[C@H](O)C2` [(-)-EPICATECHIN], on Fatty acid synthase [1], the IC50 is more than 100 µM. This molecule also showed an inhibition against Fatty acid synthase [2] of 10.2%. In turn, `CCCC(=O)C1=C(OC)C(C)C(O)=C(CC2=C(O)C(C)(C)C(O)=C(C(=O)CCC)C2=O)C1=O` (stereo unspecified) displayed an IC50 against Fatty acid synthase [1] of 32.6 µM.

As for `CCCC(=O)c1c(O)c(CC2=C(O)C(C)(C)C(O)=C(C(C)=O)C2=O)c(O)c(CC2=C(O)C(C)(C)C(O)=C(C(=O)CC)C2=O)c1O`, the IC50 against Fatty acid synthase [1] was 31 µM.

Usually IC50 stands for the midpoint of a concentration-inhibition curve. A higher IC50 goes with lower potency. Broadly, the inhibition is the share of the control response that was lost under treatment. Low values mean a response near the control, high ones a response far below the control.
